Laboratory results from PubChem BioAssay (NCI).
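The compound was tested at five concentrations on cells cultured in 96-well plates, with a 48-hour exposure period. The concentration for 50% growth inhibition is given as GI50. At the TGI there is no net growth.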

Columns and labels:
Experiment in all cases: NCI anticancer screen, dose series, 48 h
NCI-H522 lung = tested on: NCI-H522 lung
MDA-MB-468 breast = tested on: MDA-MB-468 breast
DU-145 prostate = tested on: DU-145 prostate
A498 renal = tested on: A498 renal
NCI-H23 lung = tested on: NCI-H23 lung
MDA-MB-435 = tested on: MDA-MB-435
MOLT-4 leukemia = tested on: MOLT-4 leukemia
K-562 leukemia = tested on: K-562 leukemia
HT29 colon = tested on: HT29 colon
SK-MEL-5 melanoma = tested on: SK-MEL-5 melanoma
RXF 393 renal = tested on: RXF 393 renal
OVCAR-4 ovarian = tested on: OVCAR-4 ovarian
UACC-62 melanoma = tested on: UACC-62 melanoma
SW-620 colon = tested on: SW-620 colon
M14 melanoma = tested on: M14 melanoma
SN12C renal = tested on: SN12C renal
SF-539 CNS = tested on: SF-539 CNS
LOX IMVI melanoma = tested on: LOX IMVI melanoma
HOP-62 NSCLC = tested on: HOP-62 NSCLC
A549 NSCLC = tested on: A549 NSCLC
SK-OV-3 ovarian = tested on: SK-OV-3 ovarian
OVCAR-5 ovarian = tested on: OVCAR-5 ovarian
UACC-257 melanoma = tested on: UACC-257 melanoma
NCI/ADR-RES ovarian = tested on: NCI/ADR-RES ovarian
SK-MEL-28 melanoma = tested on: SK-MEL-28 melanoma
T-47D breast = tested on: T-47D breast
786-0 renal = tested on: 786-0 renal
SF-268 CNS = tested on: SF-268 CNS
PC-3 prostate = tested on: PC-3 prostate
TK-10 renal = tested on: TK-10 renal
OVCAR-8 ovarian = tested on: OVCAR-8 ovarian
CCRF-CEM leukemia = tested on: CCRF-CEM leukemia
OVCAR-3 ovarian = tested on: OVCAR-3 ovarian
SNB-19 CNS = tested on: SNB-19 CNS
HOP-92 NSCLC = tested on: HOP-92 NSCLC
COLO 205 colon = tested on: COLO 205 colon
SR leukemia = tested on: SR leukemia
ACHN renal = tested on: ACHN renal
RPMI-8226 leukemia = tested on: RPMI-8226 leukemia
HS 578T breast = tested on: HS 578T breast
NCI-H226 lung = tested on: NCI-H226 lung
HCT-15 colon = tested on: HCT-15 colon
U251 CNS = tested on: U251 CNS
BT-549 breast = tested on: BT-549 breast
NCI-H460 lung = tested on: NCI-H460 lung
EKVX NSCLC = tested on: EKVX NSCLC
SF-295 CNS = tested on: SF-295 CNS
MCF7 breast = tested on: MCF7 breast
CAKI-1 renal = tested on: CAKI-1 renal
HL-60(TB) leukemia = tested on: HL-60(TB) leukemia
MALME-3M melanoma = tested on: MALME-3M melanoma
IGROV1 ovarian = tested on: IGROV1 ovarian
HCT-116 colon = tested on: HCT-116 colon
HCC-2998 colon = tested on: HCC-2998 colon
KM12 colon = tested on: KM12 colon

## O=C1NC(=S)/C(=C/c2cn(-c3ccccc3)nc2-c2ccccc2)S1
NCI-H522 lung
  GI50: 4.39 µM
  TGI: 19.3 µM
MDA-MB-468 breast
  GI50: 3.13 µM
  TGI: 21.8 µM
DU-145 prostate
  GI50: 9.48 µM
  TGI: > 100 µM
A498 renal
  GI50: 5.6 µM
  TGI: 41.3 µM
NCI-H23 lung
  GI50: 4.86 µM
  TGI: 51.6 µM
MDA-MB-435
  GI50: 5.49 µM
  TGI: > 100 µM
MOLT-4 leukemia
  GI50: 3.91 µM
  TGI: 34.4 µM
K-562 leukemia
  GI50: 5.38 µM
  TGI: > 100 µM
HT29 colon
  GI50: 9.99 µM
  TGI: 37.1 µM
SK-MEL-5 melanoma
  GI50: 2.59 µM
  TGI: 7.45 µM
RXF 393 renal
  GI50: 17.1 µM
  TGI: 71.6 µM
OVCAR-4 ovarian
  GI50: 5.24 µM
  TGI: > 100 µM
UACC-62 melanoma
  GI50: 3.49 µM
  TGI: 15.3 µM
SW-620 colon
  GI50: 9.67 µM
  TGI: > 100 µM
M14 melanoma
  GI50: 4.82 µM
  TGI: > 100 µM
SN12C renal
  GI50: 4.73 µM
  TGI: > 100 µM
SF-539 CNS
  GI50: 6.5 µM
  TGI: 21.8 µM
LOX IMVI melanoma
  GI50: 13.4 µM
  TGI: > 100 µM
HOP-62 NSCLC
  GI50: 22.8 µM
  TGI: > 100 µM
A549 NSCLC
  GI50: 6.74 µM
  TGI: > 100 µM
SK-OV-3 ovarian
  GI50: 6.82 µM
  TGI: 81.2 µM
OVCAR-5 ovarian
  GI50: 22 µM
  TGI: > 100 µM
UACC-257 melanoma
  GI50: 6.36 µM
  TGI: > 100 µM
NCI/ADR-RES ovarian
  GI50: 7.3 µM
  TGI: > 100 µM
SK-MEL-28 melanoma
  GI50: 5.31 µM
  TGI: > 100 µM
T-47D breast
  GI50: 4.41 µM
  TGI: > 100 µM
786-0 renal
  GI50: 4.79 µM
  TGI: > 100 µM
SF-268 CNS
  GI50: 6.07 µM
  TGI: > 100 µM
PC-3 prostate
  GI50: 5.76 µM
  TGI: > 100 µM
TK-10 renal
  GI50: 12.5 µM
  TGI: > 100 µM
OVCAR-8 ovarian
  GI50: 16.1 µM
  TGI: 80.8 µM
CCRF-CEM leukemia
  GI50: 4.35 µM
  TGI: > 100 µM
OVCAR-3 ovarian
  GI50: 7.1 µM
  TGI: 27.1 µM
SNB-19 CNS
  GI50: 4.91 µM
  TGI: > 100 µM
HOP-92 NSCLC
  GI50: 2.3 µM
  TGI: 9.73 µM
COLO 205 colon
  GI50: 11.9 µM
  TGI: 32 µM
SR leukemia
  GI50: 6.65 µM
  TGI: 32.3 µM
ACHN renal
  GI50: 8.33 µM
  TGI: > 100 µM
RPMI-8226 leukemia
  GI50: 3.57 µM
  TGI: 94.7 µM
HS 578T breast
  GI50: 5.73 µM
  TGI: 91.6 µM
NCI-H226 lung
  GI50: 13.4 µM
  TGI: > 100 µM
HCT-15 colon
  GI50: 4.29 µM
  TGI: 33.8 µM
U251 CNS
  GI50: 7.49 µM
  TGI: > 100 µM
BT-549 breast
  GI50: 2.65 µM
  TGI: 11.3 µM
NCI-H460 lung
  GI50: 4.89 µM
  TGI: 26.2 µM
EKVX NSCLC
  GI50: 4.1 µM
  TGI: > 100 µM
SF-295 CNS
  GI50: 8.61 µM
  TGI: 32.7 µM
MCF7 breast
  GI50: 4.03 µM
  TGI: > 100 µM
CAKI-1 renal
  GI50: 9.4 µM
  TGI: > 100 µM
HL-60(TB) leukemia
  GI50: 3.94 µM
  TGI: 36.6 µM
MALME-3M melanoma
  GI50: 4.85 µM
  TGI: 35.8 µM
IGROV1 ovarian
  GI50: 6.46 µM
  TGI: 45.2 µM
HCT-116 colon
  GI50: 5.57 µM
  TGI: > 100 µM
HCC-2998 colon
  GI50: 10.6 µM
  TGI: 44.6 µM
KM12 colon
  GI50: 5.8 µM
  TGI: 40.2 µM

## COc1cccc(N2CCN(c3ncnc4cc[nH]c34)CC2)c1
MDA-MB-468 breast
  GI50: 0.215 µM
  TGI: 10.2 µM

## OC(CN1CCCC2CCCCC21)c1cc2ccccc2c2ccccc12 (centres undefined)
MDA-MB-468 breast
  GI50: 1.73 µM
  TGI: 3.62 µM

## COc1cc2c3c(n([C@@H]4CCOC4)c(=O)c2cc1OC)-c1cc2c(cc1C3=O)OCO2
MDA-MB-468 breast
  GI50: < 0.01 µM
  TGI: 0.0949 µM

## CC(C)c1[nH]nc2c(NCc3ccc(-c4ccccn4)cc3)nc(SCCN(C)C)nc12
MDA-MB-468 breast
  GI50: < 0.0129 µM
  TGI: < 0.0238 µM

## [Cl][Hg][c]1ccc2ccccc2c1
MDA-MB-468 breast
  GI50: 1.46 µM
  TGI: 2.84 µM

## Cc1ccc(N=Nc2c(O)ccc3n[nH]nc23)cc1
MDA-MB-468 breast
  GI50: 4.14 µM
  TGI: 49 µM

## Cc1cc(Cl)nc(N(CCCNc2ccnc3cc(Cl)ccc23)Cc2cccs2)n1
MDA-MB-468 breast
  GI50: 1.04 µM
  TGI: 4.25 µM
